Laboratory results published in patent US5935861A, “Diazonium ion assay reagents and methods for their use” (priority 1997, dated 1999).

Format: physicochemical
Description: . An exemplary synthesis is the synthesis of 2-methyl-3-nitroaniline diazonium ion (2). In this embodiment, 2-methyl-3-nitroaniline (1) is converted to the diazonium ion (2) by reaction with sodium nitrite in an acidic aqueous medium. The reaction is illustrated in Scheme I below. The 2-methyl-3-nitroaniline diazonium ion (2) is capable of reacting with bilirubin to form a detectable product, and is thus useful in assays for detecting and quantitating bilirubin in a sample. […]

## Cc1c(N)cccc1[N+](=O)[O-] [2-methyl-3-nitroaniline]
  solubility in water or other aqueous systems (in words): good solubility in aqueous systems
